Measured values from patent publication US10799467B2, “Use of the phytocannabinoid cannabidivarin (CBDV) in the treatment of epilepsy” (GW Pharma Limited, priority 2010, dated 2020).
Marks after values point to notes of the source that are not given here.

How the values were obtained:
[1] = tested on: pilocarpine-induced seizures; assay: Pilocarpine model of epilepsy; format: in vivo; conditions: CBDV 50 and 100 mg/kg IP; pilocarpine 380 mg/kg IP
Experimental: Isolated CBDV was injected intra-peritoneally (IP) in the standard vehicle (1:1:18 ethanol:Cremophor:0.9%^w/v NaCl) at doses of 50, 100 and 200 mg/kg alongside animals that received vehicle alone at a matched volume. 15 minutes later methylscopolamine (1 mg/kg; to reduce peripheral muscarinic effects of pilocarpine) was administered followed, 45 minutes later by pilocarpine (380 mg/kg, IP) administration.

[2] = tested on: pilocarpine-induced seizures; assay: CBDV with standard anti-epileptic drugs in the pilocarpine model of epilepsy; format: in vivo
Text: These two drugs are representative of two classes of anti-convulsants which have different mechanisms of action.

[3] = tested on: motor function; assay: Linearly accelerating rotarod test of motor function; format: in vivo, rats; conditions: for time remaining on the rotarod (latency to fall): 60 minutes after administration, vehicle 111.6 seconds
Experimental: Each animal received either CBDV (100 or 200 mg/kg, n=10 for each group) or vehicle (2:1:17 Cremophor:ethanol:saline [n=12] or saline [n=11]) on a given experimental day. Experimental test days were separated by a two day rest period to allow for clearance of previous compounds. The order of drug administration was randomised using a standard Latin square design.
60 minutes after CBDV or vehicle administration, animals were placed on a linearly accelerating rotarod (Panlab/Harvard Apparatus, Holliston, USA) that increased in speed from 4 to 40 rpm over a 300 second period. An accelerating protocol was employed to eliminate the need for habituation to the rotarod, minimising divergence in the results obtained for each animal owing to disproportionate improvements in performance. Each test ended when the animal fell from the rotarod, with each animal performing three accelerating rotarod runs per experimental day. Animals were allowed a 5 minute recovery between tests to prevent fatigue-induced declines in performance. Mean latency in seconds to fall from the rotarod was compared between vehicle control and CBDV groups to assess motor function.
To assess whether there were significant effects on motor function between the two different vehicle treatments, we subjected the data to Mann-Whitney U test. Lack of significance in this analysis would allow us to combine vehicle groups thereby reducing duration of testing (i.e. each rat would undertake only one vehicle treatment test day rather than two). For analysis of CBDV effects on motor function, data were subjected to a between-subjects 1-way ANOVA with drug concentration as the main factor. In all cases, P≤0.05 was considered to be significant.

[4] = tested on: MES-induced seizure; assay: Maximal electroshock seizure (MES) model of epilepsy; format: in vivo, Mouse/ICR; conditions: for Incidence of Tonic convulsion: Table 10.2, 10 mice per group, vehicle 9/10
Experimental: The vehicle used in this study was 2:1:17 (ethanol:Cremophor:0.9% ^w/v, NaCl). The test compounds used were cannabidiol (CBD) and cannabidivarin (CBDV). These were made to a solution at the highest concentration; these were then dissolved in ethanol before combination with Cremophor and 0.9% NaCl in the proportion described above. The CBD or CBDV were administered intraperitoneally at a volume of 10 ml/kg body weight. The SAED valproic acid (VBA) was dissolved in saline.
Animal Species/Strain: Mouse/ICR, Microbiological grade: SPF, Supplier: SLC Japan, Inc. […] Temperature: 23±2° C., Humidity: 60±10%, Light conditions: 7 AM to 7 PM for the light period, 7 PM to 7 AM for the dark period. Chow and water: Free access to CRF-1 (Oriental Yeast Co, Ltd) and tap water.
One day before each experiment, mice were weighed and randomized into several groups in each test. On the morning of the experiment day, body weight was measured in order to calculate the administration volume of each animal. Vehicle, CBD, CBDV or valproic acid sodium salt was interperitoneally administered 30 minutes before electric stimuli. Maximal electroshock seizures (MES) in mice was induced by a stimulator (UGO BASILE ECT UNIT 7801, Italia) using a current of 30 mA delivered with a pulse frequency of 100 Hz for 200 msec through earlap electrodes.
All statistical analyses were performed using SAS Software for Windows, Release 9.1 (SAS Institute Japan). The difference of the number (hindlimb extension or deaths) in each group was assessed using two-tailed Fisher's exact test.

[5] = Observation of side effects in all experiments with isolated CBDV and CBDV BDS; format: in vivo; conditions: all experiments using isolated CBDV and CBDV BDS
[6] = tested on: epileptiform burst activity in hippocampal slices (4-AP model); assay: 4-AP in vitro epileptiform model in hippocampal brain slices (multi-electrode array); format: cell-based, Wistar rats
Experimental: Use of isolated CBDV in two in vitro epileptiform models in hippocampal brain slices
Hippocampal slices were produced acutely from P>21 Wistar rats and activity recorded by multi-electrode arrays (MEA).
To induce epileptiform activity, either Mg^2+ was removed (Mg^2+-free model) or 100 μM 4-aminopyridine was added (4-AP model). 30 min after epileptiform burst activity was established, CBDV was added cumulatively (1, 10, 100 μM; 30 min each).
The effects of CBDV on epileptiform burst amplitude and duration were measured (Table 2.1).

[7] = CBDV 200 mg/kg with valproate at various doses

Which mortality [1] does the source give for `C=C(C)[C@@H]1CCC(C)=C[C@H]1c1c(O)cc(CCC)cc1O` [CBDV, Cannabidivarin] here?
The mortality was “decreased”.

And the seizure severity ([2]; CBDV 200 mg/kg with phenobarbital at various doses)?
Its seizure severity is “significantly decreases”.

And the “mortality (independent effect)” value [2, 7]?
The value was “significant decrease”.

What about the “seizure severity (independent effect)” value [2, 7] of the same compound?
The value was “independent and positive effects”.

What about the bilateral seizure incidence ([2]; CBDV 200 mg/kg, particularly with high dose Valproate (250 mg/kg)) of the same compound?
The bilateral seizure incidence was “significantly decreased”.

What about the “CBDV interaction (alone) with clonic tonic seizure” value ([2]; CBDV 200 mg/kg, valproate study) of the same compound?
Its value is “statistically significant”.

And the “time remaining on the rotarod (latency to fall)” value ([3]; 100 mg/kg CBDV)?
Its value is 86.6 s.

What about the “time remaining on the rotarod (latency to fall)” value ([3]; 200 mg/kg CBDV) of the same compound?
The value was 110.0 s.

And the “effect on the latency to fall compared to vehicle” value ([3]; CBDV at any dose (100, 200 mg/kg), P=0.253)?
Its value is “no effect”.

What about the “Incidence of Tonic convulsion” value ([4]; 50 mg/kg i.p.) of the same compound?
The value was 9/10.

And the “Incidence of Tonic convulsion” value ([4]; 100 mg/kg i.p.)?
The value was 3/10*.

What about the “Incidence of Tonic convulsion” value ([4]; 200 mg/kg i.p.) of the same compound?
The value was 3/10*.

What about the “inhibition of the expression of hindlimb extension” value ([4]; CBDV 100 and 200 mg/kg IP) of the same compound?
Its value is “significantly inhibited”.

What about the notable side effects [5] of the same compound?
Its notable side effects is “did not exhibit any notable side effects”.

And the “Burst amplitude (% of control) CA1” value ([6]; CBDV 1 μM)?
Its value is 89.3 ± 5.6 % of control.

And the “Burst duration (% of control) CA1” value ([6]; CBDV 1 μM)?
Its value is 104.3 ± 8.0 % of control.

What about the “Burst amplitude (% of control) CA3” value ([6]; CBDV 1 μM) of the same compound?
Its value is 103.0 ± 5.8 % of control.

What about the “Burst duration (% of control) CA3” value ([6]; CBDV 1 μM) of the same compound?
The value was 91.0 ± 6.0 % of control.

What about the “Burst amplitude (% of control) DG” value ([6]; CBDV 1 μM) of the same compound?
Its value is 94.2 ± 3.0 % of control.

What about the “Burst duration (% of control) DG” value ([6]; CBDV 1 μM) of the same compound?
Its value is 95.7 ± 5.9 % of control.

And the “Burst amplitude (% of control) CA1” value ([6]; CBDV 10 μM)?
The value was 88.3 ± 5.2 % of control.

What about the “Burst duration (% of control) CA1” value ([6]; CBDV 10 μM) of the same compound?
Its value is 85.9 ± 6.2 % of control.

And the “Burst amplitude (% of control) CA3” value ([6]; CBDV 10 μM)?
Its value is 121.9 ± 17.0 % of control.

And the “Burst duration (% of control) CA3” value ([6]; CBDV 10 μM)?
The value was 82.5 ± 4.8 % of control.

And the “Burst amplitude (% of control) DG” value ([6]; CBDV 10 μM)?
Its value is 91.2 ± 4.9 % of control.

And the “Burst duration (% of control) DG” value ([6]; CBDV 10 μM)?
Its value is 83.8 ± 4.4 % of control.

What about the “Burst amplitude (% of control) CA1” value ([6]; CBDV 100 μM) of the same compound?
Its value is 89.5 ± 5.3 % of control.

And the “Burst duration (% of control) CA1” value ([6]; CBDV 100 μM)?
The value was 85.9 ± 5.8 % of control.

What about the “Burst amplitude (% of control) CA3” value ([6]; CBDV 100 μM) of the same compound?
The value was 110.3 ± 7.0 % of control.

What about the “Burst duration (% of control) CA3” value ([6]; CBDV 100 μM) of the same compound?
Its value is 79.7 ± 5.4 % of control.

And the “Burst amplitude (% of control) DG” value ([6]; CBDV 100 μM)?
Its value is 95.9 ± 4.3 % of control.

What about the “Burst duration (% of control) DG” value ([6]; CBDV 100 μM) of the same compound?
The value was 83.4 ± 4.1 % of control.
